Columns and labels:
JNK/SAPK and p38 = details: Pierce et al., J Biol Chem 272:21096-103, 1997; cited from earlier work
293-COX-2 cells = experiment: Apoptosis of 293-COX-2 cells with or without ponasterone induction of COX-2; type: cell-based; details: 8 hours of exposure
Protocol: The transiently suspended cells were lysed and allowed to bind to DNA oligonucleotides, containing the NF-κB consensus binding site, that were immobilized to 96-well plates. NF-κB protein bound to the oligonucleotides was detected by an antibody to the p65 subunit that only recognized p65 that is bound to DNA. The positive control was HeLa cells that were stimulated with TNFα. A control was performed using excess free NF-κB oligonucleotides (Competitor). […] NF-κB binding activity was determined by the TransAM assay as in FIG. 5A. […] The data shown represent typical results of three separate experiments. […] An immunoblot for COX-2 was performed.
DLD-1, HCT-116, and HT-29 colon cancer cell lines were obtained from the ATCC collection and were cultured in Dulbecco's Modification of Eagle's Medium (DMEM) supplemented with 10% fetal bovine serum, glutamine, penicillin, and streptomycin. […]
Single cell suspensions were plated at 100,000 cells per well in 24-well plates in media containing DMSO, BAY 11-7082, BAY 11-7085, or MG-132 for 8-24 hours in an incubator. […] 400 μL of binding buffer was added to each tube and the cells were analyzed by flow cytometry immediately. The percent of apoptosis was determined as the percent of annexin V-positive, propidium iodide-negative cells of the total cells counted. […]

JNK = JNK activity (phosphorylation of c-JUN) in colon and pancreatic cancer cell lines; type: cell-based, human
FLIP = FLIP immunoblot in HT-29 cells; type: cell-based, human
Protocol: (§1) The data points represent the means of triplicate experiments and the error bars the standard errors of the means. […] The percent of apoptotic cells was then determined by the annexin V assay. […] The results shown are typical of two separate experiments. […] Immunoblots were performed for c-IAP-2, TRAF-1, TRAF-2, and FLIP. All lanes contain equal total protein.
The cells were washed twice in ice cold PBS and then lysed in 4° C. lysis buffer (50 mM HEPES, 150 mM NaCl, 1.5 mM MgCl2, 1 mM EGTA, 100 mM NaF, 10 mM Na2PO4, 1 mM Na3VO4, 10% glycerol, 1% TRITON™ X-100, and 1 μg/mL each of aprotinin, leupeptin, chymostatin, pepstatin) and clarified at 12,000 rpm at 4° C. for 15 minutes. The lysates were normalized for total protein concentration. […]
For immunodetection, the blocked blots were probed with primary antibody for 2 hours at 4° C. on a rocker. […] Alkaline phosphatase was detected by a colorimetric reaction using a BCIP (5-bromo-4-chloro-3-indolyl phosphate)/NBT (nitroblue tetrazolium) kit (Zymed).
Since HCT-116 colon cancer cells have relatively low levels of FLIP compared with other cancer cell lines (FIG. 13A), they were transfected with human c-FLIP. HCT-116 cells that were transfected with human c-FLIP or empty vector were transiently suspended and allowed to readhere in the presence of BAY 11-7085 for 8 hours. […]

[1] = tested on: DLD-1, HCT-116, HT-29 colon cancer cell lines; experiment: Cell proliferation assay (crystal violet, 96-well); type: cell-based, human; details: 10 μM, cultured up to 8 days
Protocol: as §1
For the cell proliferation assay, cells were dispersed and plated at 40,000 cells/well in 96-well dishes. At various days in culture, the cells were gently washed twice with 100 μL/well of ice-cold blocking buffer (1% radioimmunoassay grade BSA in PBS) and twice with 100 μL/well of ice-cold PBS. The cells were fixed for 10 min in 100% ice-cold methanol (100 μL/well), then allowed to air-dry. The cells were stained with 100 μL/well of 0.1% crystal violet in H20 for 10 minutes, then washed gently four times with dd H20 and four times with PBS. The plates were then air-dried completely. The stained cells were then solubilized in 1% sodium deoxycholate, and the plates read at 590 nm in a spectrophotometer. The absorption at 590 nm is proportional to the number of attached cells.

**Q.** For `CC(C)(C)c1ccc(S(=O)(=O)/C=C/C#N)cc1` [BAY 11-7085, (2E)-3-[4-(tertiarybutylphenyl)sulfonyl]-2-propenenitrile], which “activation of JNK/SAPK and p38” value (JNK/SAPK and p38) is on record?
**A.** activate JNK/SAPK and p38

**Q.** And the apoptosis (293-COX-2 cells; ponasterone-induced 293-COX-2 cells (1 μg/mL, 48 hours))?
**A.** marked increase in BAY 11-7085-induced apoptosis

**Q.** What about the apoptosis (293-COX-2 cells; uninduced 293-COX-2 cells) of the same molecule?
**A.** no increase in apoptosis

**Q.** What about the “JNK activity (phosphorylation of c-JUN)” value (JNK) of the same molecule?
**A.** readily induced JNK activity

**Q.** What about the “expression of the 54 kilodalton (long) isoform of FLIP” value (FLIP; adherent HT-29, 20 μM) of the same molecule?
**A.** only a slight diminution

**Q.** And the “FLIP expression in readhering HT-29 cells” value (FLIP; readhering HT-29, 3 hours)?
**A.** caused the down-regulation of FLIP after only 3 hours

**Q.** What about the cell proliferation [1] of the same molecule?
**A.** greatly inhibited cell proliferation

Source: patent US20110251135A1, “INHIBITORS OF PERITONEAL SEEDING OF CANCER CELLS” (University of Utah Research Foundation, priority 2008, published 2011)
